Laboratory results reported in patent US8779141B2, “Viral inhibitors” (Gilead Sciences, Inc., priority 2002, dated 2014).
≈ marks a conversion by molar mass, not a printed value. Read-outs that look alike come from different tables or passages of the source.

How the values were obtained:
[1] = test system: Coxsackie B3 virus (strain Nancy); assay: Anti-coxsackie virus assay, cytopathic effect in Vero cells (MTS); type: cell-based; details: Enterovirus B, Table 13, reduction of virus (CBV-3 Nancy strain)-induced cytopathic effect in Vero cells by 50%
Experimental: (§1) Madin-Darbey Bovine Kidney (MDBK) cells were maintained in Dulbecco's modified Eagle medium (DMEM) supplemented with BVDV-free 5% fetal calf serum (DMEME-FCS) at 37° C. in a humidified, 5% CO2 atmosphere. BVDV-1 (strain PE515) was used to assess the antiviral activity in MDBK cells. Vero cells were maintained in the same way as MDBK cells. Vero cells were infected with Coxsackie B3 virus (strain Nancy).
(§2) Ninety-six-well cell culture plates were seeded with Vero cells in DMEM medium containing 10 fetal calf serum (FCS) so that cells reached confluency 24-48 hr later. Medium was then removed and serial 5-fold dilutions of the test compounds were added in a total volume of 100 ul, after which the virus inoculum (100 μl) was added to each well. […] Uninfected cells and cells receiving virus without compound were included in each asay plate. After 5 days, the medium was removed and 90 μl of DMEM-FCS and 10 μl of MTS/PMS solution (Promega) was added to each well. Following a 2 hr incubation period at 37° C., the optical density of the wells was read at 498 nm in a microplate reader. The 50% effective concentration (EC50) value was defined as the concentration of compound that protects 50% of the cell monolayer from virus-induced cytopathic effect.

[2] = Cytostatic effect on exponentially growing MDBK cells (MTS); type: cell-based, Bovine; details: bovine; Table 9; reduction of growth of exponentially growing MDBK cells by 50%; mean of 2-5 determinations
Experimental: (§3) Madin-Darbey Bovine Kidney (MDBK) cells were maintained in Dulbecco's modified Eagle medium (DMEM) supplemented with BVDV-free 5% fetal calf serum ([…]) at 37° C. in a humidified, 5% CO2 atmosphere. […] Vero cells were maintained in the same way as MDBK cells. […] The effect of the drugs on exponentially growing MDBK cells was assessed as follows. Cells were seeded at a density of 5000 cell/well in 96 well plates in MEM medium (Gibco) supplemented with 10% fetal calf serum, 2 mM L-glutamine (Life Technologies) and bicarbonate (Life Technologies). […] Cultures were then again further incubated for 3 days after which the effect on cell growth was quantified by means of the MTS method (Promega).

Vero cells = assay: Metabolism of confluent Vero cells (MTS); type: cell-based; details: Table 13; reduction of metabolism of confluent Vero cells by 50%, MTS method
Experimental: as §1, §2

BVDV-1 (strain PE515) = assay: Anti-BVDV assay, virus-induced cytopathic effect in MDBK cells (MTS); type: cell-based, Bovine Viral Diarrhea Virus
Experimental: as §1
Ninety-six-well cell culture plates were seeded with MDBK cells in DMEM-FCS so that cells reached 24 hr later confluency. Then medium was removed and serial 5-fold dilutions of the test compounds were added in a total volume of 100 ul, after which the virus inoculum (100 ul) was added to each well. […] Uninfected cells and cells receiving virus without compound were included in each assay plate. After 5 days, medium was removed and 90 μl of DMEM-FCS and 10 ul of MTS/PMS solution (Promega) was added to each well. Following a 2 hr incubation period at 37° C. the optical density of the wells was read at 498 nm in a microplate reader.

MDBK cells = assay: Cytostatic effect on exponentially growing MDBK cells (MTS); type: cell-based, Bovine; details: for MTC: Table 10, mean toxic concentration, reduces growth of exponentially growing MDBK cells by 50%
Experimental: as §3

[3] = Proliferation of exponentially growing Huh-5-2 cells (MTS); type: cell-based; details: human, exponentially growing Huh-5-2 cells (HCV replicon cell line); Table 11; inhibition of proliferation of exponentially growing Huh-5-2 cells by 50%
Experimental: (§4) Cells were seeded at a density of 7000 cells per well in 96 well View Plate™ (Packard) in medium containing the same components as described above, except for G418. Cells were allowed to adhere and proliferate for 24 hr. At that time, culture medium was removed and serial dilutions of the test compounds were added in culture medium lacking G418. Interferon alfa 2a (500 IU) was included as a positive control. Plates were further incubated at 37° C. and 5% CO2 for 72 hours. Replication of the HCV replicon in Huh-5 cells results in luciferase activity in the cells. Luciferase activity is measured by adding 50 μl of 1× Glo-lysis buffer (Promega) for 15 minutes followed by 50 ul of the Steady-Glo Luciferase assay reagent (Promega). Luciferase activity is measured with a luminometer and the signal in each individual well is expressed as a percentage of the untreated cultures. […] Instead the density of the culture is measured by means of the MTS method (Promega).

[4] = test system: HCV replicon in Huh-5-2 cells; assay: Anti-HCV replicon assay, luciferase activity in Huh-5-2 cells; type: cell-based; details: Hepatitis C virus, Table 11, inhibition of luciferase activity in the replicon system by 50%
Experimental: as §4

[5] = Bovine viral diarrhea virus isolates and strains, Table 9, reduction of virus induced cytopathic effect in MDBK cells by 50%, BVDV strain PE515, mean of 2-5 determinations, read-out: EC50
[6] = Bovine viral diarrhea virus isolates and strains, MDBK
[7] = Bovine viral diarrhea virus isolates and strains, Table 10, reduction of virus induced cytopathic effect in MDBK cells by 50%, read-out: EC50

Compound	EC50 [1] [µg/mL]	CC50 at 3 days [2] [µg/mL]	TC50 (Vero cells) [µg/mL]	EC50 (BVDV-1 (strain PE515); [5]) [µg/mL]	other results
Fc1cccc(F)c1-c1nc2ccn(Cc3ccc(Cl)c(Cl)c3)cc-2n1 [GPC-10, 5-[(3,4-Dichlorophenyl)methyl]-2-(2,6-difluorophenyl)-5H-imidazo[4,5-c]pyridine]	1.81 (≈ 4.64 µM)	4 (≈ 10.3 µM)	59 (≈ 151 µM)	0.064 (≈ 0.164 µM)	
Fc1cccc(-c2nc3ccn(Cc4ccc(F)cc4F)cc-3n2)c1 [GPC-11, 5-[(2,4-Difluorophenyl)methyl]-2-(3-fluorophenyl)-5H-imidazo[4,5-c]pyridine]	4.76 (≈ 14 µM)	> 100	>100	0.56 (≈ 1.65 µM)	
Fc1ccc(Cn2ccc3nc(-c4c(F)ccc(F)c4F)nc-3c2)c(F)c1 [GPC-12, 5-[(2,4-Difluorophenyl)methyl]-2-(2,3,6-trifluorophenyl)-5H-imidazo[4,5-c]pyridine]	3.6 (≈ 9.59 µM)		>100		
c1ccc(-c2ccc(Cn3ccc4nc(-c5ccccc5)nc-4c3)cc2)cc1 [GPJN-32, 5-([1,1′-Biphenyl]-4-ylmethyl)-2-phenyl-5H-imidazo[4,5-c]pyridine]	6.5 (≈ 18 µM)	20 (≈ 55.3 µM)	69 (≈ 191 µM)	0.027 (≈ 0.0747 µM)	
c1ccc(-c2nc3ccn(Cc4cccc5ccccc45)cc-3n2)cc1 [GPJN-36, 5-(1-Naphthalenylmethyl)-2-phenyl-5H-imidazo[4,5-c]pyridine]					CC50 (MDBK cells; Table 9, reduction of growth of exponentially growing MDBK cells by 50%, mean of 2-5 determinations): 24 µg/mL (≈ 71.6 µM); EC50 (BVDV-1 (strain PE515); Table 9, reduction of virus induced cytopathic effect in MDBK cells by 50%, BVDV strain PE515, mean of 2-5 determinations): 0.019 µg/mL (≈ 0.0566 µM)
Fc1ccc(Cn2ccc3nc(-c4c(F)cccc4F)nc-3c2)c(F)c1 [GPJN-40, 2-(2,6-Difluorophenyl)-5-[(2,4-difluorophenyl)methyl]-5H-imidazo[4,5-c]pyridine]	8.95 (≈ 25 µM)	> 100	>100	0.25 (≈ 0.7 µM)	
Fc1cccc(-c2nc3ccn(Cc4ccc(Br)cc4)cc-3n2)c1 [GPJN-50, 5-[(4-Bromophenyl)methyl]-2-(3-fluorophenyl)-5H-imidazo[4,5-c]pyridine]	8.47 (≈ 22.2 µM)	> 100	>100	0.021 (≈ 0.0549 µM)	
Clc1ccccc1-c1nc2ccn(Cc3ccc(Br)cc3)cc-2n1 [GPJN-54, 5-[(4-Bromophenyl)methyl]-2-(2-chlorophenyl)-5H-imidazo[4,5-c]pyridine]		35 (≈ 87.8 µM)		0.1 (≈ 0.251 µM)	
Clc1cccc(-c2nc3ccn(Cc4ccc(Br)cc4)cc-3n2)c1 [GPJN-55, 5-[(4-Bromophenyl)methyl]-2-(3-chlorophenyl)-5H-imidazo[4,5-c]pyridine]		> 100		0.06 (≈ 0.15 µM)	
Cc1cccc(-c2nc3ccn(Cc4ccc(Br)cc4)cc-3n2)c1 [GPJN-60, 5-[(4-Bromophenyl)methyl]-2-(3-methylphenyl)-5H-imidazo[4,5-c]pyridine]	6.1 (≈ 16.1 µM)	> 77	>100		EC50 (BVDV-1 (strain PE515); [6]): 0.015 µg/mL (≈ 0.0397 µM)
Brc1ccc(Cn2ccc3nc(-c4ccc5ccccc5c4)nc-3c2)cc1 [GPJN-63, 5-[(4-Bromophenyl)methyl]-2-(2-naphthalenyl)-5H-imidazo[4,5-c]pyridine]		4.3 (≈ 10.4 µM)		0.0042 (≈ 0.0101 µM)	
COc1cccc(-c2nc3ccn(Cc4ccc(Br)cc4)cc-3n2)c1 [GPJN-64, 5-[(4-Bromophenyl)methyl]-2-(3-methoxyphenyl)-5H-imidazo[4,5-c]pyridine]	12 (≈ 30.4 µM)	> 100	>42	0.026 (≈ 0.0659 µM)	
Brc1ccc(Cn2ccc3nc(-c4cccc(Br)c4)nc-3c2)cc1 [GPJN-65, 2-(3-Bromophenyl)-5-[(4-bromophenyl)methyl]-5H-imidazo[4,5-c]pyridine]		> 100			EC50 (BVDV-1 (strain PE515); [6]): 0.01 µg/mL (≈ 0.0226 µM)
Ic1ccc(Cn2ccc3nc(-c4ccccc4)nc-3c2)cc1 [GPJN-68, 5-[(4-Iodophenyl)methyl]-2-phenyl-5H-imidazo[4,5-c]pyridine]		17 (≈ 41.3 µM)		0.026 (≈ 0.0632 µM)	
c1ccc(OCCn2ccc3nc(-c4ccccc4)nc-3c2)cc1 [GPJN-73, 5-(2-Phenoxyethyl)-2-phenyl-5H-imidazo[4,5-c]pyridine]		> 100		0.017 (≈ 0.0539 µM)	
C(=Cc1ccccc1)Cn1ccc2nc(-c3ccccc3)nc-2c1 [GPJN-75, 2-Phenyl-5-(3-phenyl-2-propenyl)-5H-imidazo[4,5-c]pyridine]		31.7 (≈ 102 µM)		0.018 (≈ 0.0578 µM)	
Brc1cccc(-c2nc3ccn(Cc4ccc(I)cc4)cc-3n2)c1 [GPJN-79, 2-(3-Bromophenyl)-5-[(4-iodophenyl)methyl]-5H-imidazo[4,5-c]pyridine]		> 100		0.083 (≈ 0.169 µM)	
Clc1ccc(Cn2ccc3nc(-c4cccc(Br)c4)nc-3c2)cc1 [GPJN-80, 2-(3-Bromophenyl)-5-[(4-chlorophenyl)methyl]-5H-imidazo[4,5-c]pyridine]		> 100		0.18 (≈ 0.451 µM)	
Brc1ccc(Cn2ccc3nc(CSc4ccccc4)nc-3c2)cc1 [GPJN-83, 5-[(4-Bromophenyl)methyl]-2-[(phenylthio)methyl]-5H-imidazo[4,5-c]pyridine]					CC50 at 72 hours [3]: 8 µg/mL (≈ 19.5 µM); EC50 [4]: < 0.62 µg/mL
Brc1cccc(-c2nc3ccn(CCOc4ccccc4)cc-3n2)c1 [GPJN-100, 2-(3-Bromophenyl)-5-(2-phenoxyethyl)-5H-imidazo[4,5-c]pyridine]					MTC (MDBK cells): 20 µg/mL; EC50 (BVDV-1 (strain PE515); [7]): 0.088 µg/mL (≈ 0.223 µM)
Clc1cn(Cc2ccc(Br)cc2)cc2nc(-c3ccccc3)nc1-2 [GPJN-103, 5-[(4-Bromophenyl)methyl]-7-chloro-2-phenyl-5H-imidazo[4,5-c]pyridine]					MTC (MDBK cells): 20 µg/mL; EC50 (BVDV-1 (strain PE515); [7]): 0.061 µg/mL (≈ 0.153 µM)
Cc1cn(Cc2ccc(Br)cc2)cc2nc(-c3ccccc3)nc1-2 [GPJN-104, 5-[(4-Bromophenyl)methyl]-7-methyl-2-phenyl-5H-imidazo[4,5-c]pyridine]					MTC (MDBK cells): 20 µg/mL; EC50 (BVDV-1 (strain PE515); [7]): 0.27 µg/mL (≈ 0.714 µM)
c1ccc(-c2ccc(Cn3ccc4nc(-c5cccc6ccccc56)nc-4c3)cc2)cc1 [GPJN-115, 5-([1,1′-Biphenyl]-4-ylmethyl)-2-(1-naphthalenyl)-5H-imidazo[4,5-c]pyridine]					MTC (MDBK cells): 4 µg/mL; EC50 (BVDV-1 (strain PE515); [7]): 0.24 µg/mL (≈ 0.583 µM)
